From patent US20160367623A1, “AGONISTS OF GUANYLATE CYCLASE USEFUL FOR THE TREATMENT OF GASTROINTESTINAL DISORDERS, INFLAMMATION, CANCER AND OTHER DISORDERS” (priority 2015, published 2016)
Bridge positions count the residues as written; N and C are the ends. Ends that are not written are not given here.

System: patients with chronic idiopathic constipation (CIC)
Assay: Second phase 3 CIC trial: change from baseline in CSBMs/week
Type: in vivo, human
Conditions: All Randomized (includes Duplicate Patients)
[1] = 3 mg, overall average estimate across the 12-week treatment period

Substance: Asn^1-Asp^2-Glu^3-Cys^4-Glu^5-Leu^6-Cys^7-Val^8-Asn^9-Val^10-Ala^11-Cys^12-Thr^13-Gly^14-Cys^15-Leu^16 (NDECELCVNVACTGCL; disulfide 4-12, 7-15) [Plecanatide, uroguanylin analogue, guanylate cyclase-C agonist; (C4:C12, C7:C15) bicycle peptide]
- Change from Baseline in CSBMs, Difference from Placebo (3 mg, Post-Treatment Week 13): 0.43 CSBMs/week
- Change from Baseline in CSBMs, LS Mean (SE) (3 mg, Post-Treatment Week 13): 1.91 (0.131) CSBMs/week
- Change from Baseline in CSBMs, Mean (SD) (3 mg, Post-Treatment Week 13): 1.87 (2.717) CSBMs/week
- Change from Baseline in CSBMs, Difference from Placebo (3 mg, Post-Treatment Week 14): 0.40 CSBMs/week
- Change from Baseline in CSBMs, LS Mean (SE) (3 mg, Post-Treatment Week 14): 1.78 (0.133) CSBMs/week
- Change from Baseline in CSBMs, Mean (SD) (3 mg, Post-Treatment Week 14): 1.75 (2.596) CSBMs/week
- Change from Baseline in CSBMs, Difference from Placebo (3 mg, Week 1): 0.90 CSBMs/week
- Change from Baseline in CSBMs, LS Mean (SE) (3 mg, Week 1): 1.72 (0.147) CSBMs/week
- Change from Baseline in CSBMs, Mean (SD) (3 mg, Week 1): 1.75 (2.737) CSBMs/week
- Change from Baseline in CSBMs, Difference from Placebo (3 mg, Week 2): 0.87 CSBMs/week
- Change from Baseline in CSBMs, LS Mean (SE) (3 mg, Week 2): 1.83 (0.147) CSBMs/week
- Change from Baseline in CSBMs, Mean (SD) (3 mg, Week 2): 1.82 (2.956) CSBMs/week
- Change from Baseline in CSBMs, Difference from Placebo (3 mg, Week 3): 0.77 CSBMs/week
- Change from Baseline in CSBMs, LS Mean (SE) (3 mg, Week 3): 1.94 (0.147) CSBMs/week
- Change from Baseline in CSBMs, Mean (SD) (3 mg, Week 3): 1.94 (3.084) CSBMs/week
- Change from Baseline in CSBMs, Difference from Placebo (3 mg, Week 4): 0.95 CSBMs/week
- Change from Baseline in CSBMs, LS Mean (SE) (3 mg, Week 4): 2.17 (0.148) CSBMs/week
- Change from Baseline in CSBMs, Mean (SD) (3 mg, Week 4): 2.20 (3.352) CSBMs/week
- Change from Baseline in CSBMs, Difference from Placebo (3 mg, Week 5): 0.87 CSBMs/week
- Change from Baseline in CSBMs, LS Mean (SE) (3 mg, Week 5): 2.30 (0.149) CSBMs/week
- Change from Baseline in CSBMs, Difference from Placebo (3 mg, Week 6): 1.00 CSBMs/week
- Change from Baseline in CSBMs, LS Mean (SE) (3 mg, Week 6): 2.30 (0.149) CSBMs/week
- Change from Baseline in CSBMs, Difference from Placebo (3 mg, Week 7): 0.82 CSBMs/week
- Change from Baseline in CSBMs, LS Mean (SE) (3 mg, Week 7): 2.28 (0.150) CSBMs/week
- Change from Baseline in CSBMs, Difference from Placebo (3 mg, Week 8): 1.01 CSBMs/week
- Change from Baseline in CSBMs, LS Mean (SE) (3 mg, Week 8): 2.49 (0.150) CSBMs/week
- Change from Baseline in CSBMs, Difference from Placebo (3 mg, Week 9): 0.93 CSBMs/week
- Change from Baseline in CSBMs, LS Mean (SE) (3 mg, Week 9): 2.46 (0.150) CSBMs/week
- Change from Baseline in CSBMs, Difference from Placebo (3 mg, Week 10): 0.84 CSBMs/week
- Change from Baseline in CSBMs, LS Mean (SE) (3 mg, Week 10): 2.46 (0.150) CSBMs/week
- Change from Baseline in CSBMs, Difference from Placebo (3 mg, Week 11): 0.96 CSBMs/week
- Change from Baseline in CSBMs, LS Mean (SE) (3 mg, Week 11): 2.53 (0.151) CSBMs/week
- Change from Baseline in CSBMs, Difference from Placebo (3 mg, Week 12): 0.95 CSBMs/week
- Change from Baseline in CSBMs, LS Mean (SE) (3 mg, Week 12): 2.58 (0.151) CSBMs/week
- Change from Baseline in CSBMs, Difference from Placebo [1]: 0.91 CSBMs/week
- Change from Baseline in CSBMs, LS Mean (SE) [1]: 2.25 (0.129) CSBMs/week
- Change from Baseline in CSBMs, Difference from Placebo (6 mg, Post-Treatment Week 13): 0.16 CSBMs/week
- Change from Baseline in CSBMs, LS Mean (SE) (6 mg, Post-Treatment Week 13): 1.64 (0.130) CSBMs/week
- Change from Baseline in CSBMs, Mean (SD) (6 mg, Post-Treatment Week 13): 1.59 (2.376) CSBMs/week
- Change from Baseline in CSBMs, Difference from Placebo (6 mg, Post-Treatment Week 14): 0.30 CSBMs/week
- Change from Baseline in CSBMs, LS Mean (SE) (6 mg, Post-Treatment Week 14): 1.67 (0.133) CSBMs/week
- Change from Baseline in CSBMs, Mean (SD) (6 mg, Post-Treatment Week 14): 1.62 (2.588) CSBMs/week
- Change from Baseline in CSBMs, Difference from Placebo (6 mg, Week 1): 0.88 CSBMs/week
- Change from Baseline in CSBMs, LS Mean (SE) (6 mg, Week 1): 1.70 (0.146) CSBMs/week
- Change from Baseline in CSBMs, Mean (SD) (6 mg, Week 1): 1.71 (2.870) CSBMs/week
- Change from Baseline in CSBMs, Difference from Placebo (6 mg, Week 2): 0.85 CSBMs/week
- Change from Baseline in CSBMs, LS Mean (SE) (6 mg, Week 2): 1.81 (0.146) CSBMs/week
- Change from Baseline in CSBMs, Mean (SD) (6 mg, Week 2): 1.83 (3.118) CSBMs/week
- Change from Baseline in CSBMs, Difference from Placebo (6 mg, Week 3): 0.65 CSBMs/week
- Change from Baseline in CSBMs, LS Mean (SE) (6 mg, Week 3): 1.81 (0.147) CSBMs/week
- Change from Baseline in CSBMs, Mean (SD) (6 mg, Week 3): 1.83 (2.927) CSBMs/week
- Change from Baseline in CSBMs, Difference from Placebo (6 mg, Week 4): 0.80 CSBMs/week
- Change from Baseline in CSBMs, LS Mean (SE) (6 mg, Week 4): 2.02 (0.147) CSBMs/week
- Change from Baseline in CSBMs, Difference from Placebo (6 mg, Week 5): 0.50 CSBMs/week
- Change from Baseline in CSBMs, LS Mean (SE) (6 mg, Week 5): 1.93 (0.147) CSBMs/week
- Change from Baseline in CSBMs, Difference from Placebo (6 mg, Week 6): 0.91 CSBMs/week
- Change from Baseline in CSBMs, LS Mean (SE) (6 mg, Week 6): 2.21 (0.148) CSBMs/week
- Change from Baseline in CSBMs, Difference from Placebo (6 mg, Week 7): 0.81 CSBMs/week
- Change from Baseline in CSBMs, LS Mean (SE) (6 mg, Week 7): 2.27 (0.148) CSBMs/week
- Change from Baseline in CSBMs, Difference from Placebo (6 mg, Week 8): 0.81 CSBMs/week
- Change from Baseline in CSBMs, LS Mean (SE) (6 mg, Week 8): 2.29 (0.148) CSBMs/week
- Change from Baseline in CSBMs, Difference from Placebo (6 mg, Week 9): 0.81 CSBMs/week
- Change from Baseline in CSBMs, LS Mean (SE) (6 mg, Week 9): 2.34 (0.149) CSBMs/week
- Change from Baseline in CSBMs, Difference from Placebo (6 mg, Week 10): 0.85 CSBMs/week
- Change from Baseline in CSBMs, LS Mean (SE) (6 mg, Week 10): 2.47 (0.149) CSBMs/week
- Change from Baseline in CSBMs, Difference from Placebo (6 mg, Week 11): 0.83 CSBMs/week
- Change from Baseline in CSBMs, LS Mean (SE) (6 mg, Week 11): 2.40 (0.149) CSBMs/week
- Change from Baseline in CSBMs, Difference from Placebo (6 mg, Week 12): 0.86 CSBMs/week
- Change from Baseline in CSBMs, LS Mean (SE) (6 mg, Week 12): 2.49 (0.150) CSBMs/week
- Change from Baseline in CSBMs, Difference from Placebo (6 mg, overall average estimate across the 12-week treatment period): 0.80 CSBMs/week
